The source of these data is patent US11311513B2, “Methods, agents, and compositions for the treatment of acute myeloid leukemia” (UNIVERSITY OF CINCINNATI, priority 2017, dated 2022).

In one data set the test system is THP-1 cells. Nature of the data set: MTS cell viability, THP-1. It counts as cell-based. The settings on record: Homo sapiens, 48 hrs, unit inferred. The procedure:
(§1) In order to identify chemical compounds that may target TET1 signaling, the drug-sensitivity/gene expression database of a total of 20,602 chemical compounds in the NCI-60 collection of cancer cell samples was searched.
(§2) All cell lines were authenticated through STR profiling yearly.
(§3) These experiments were conducted as described previously (Jiang, X., et al., Blockade of miR-150 Maturation by MLL-Fusion/MYC/LIN-28 Is Required for MLL-Associated Leukemia, Cancer Cell 22:524-35 (2012); Li, Z., et al., miR-196b directly targets both HOXA9/MEIS1 oncogenes and FAS tumour suppressor in MLL-rearranged leukaemia, Nat Commun 2:688 (2012)) with ApoLive-Glo Multiplex Assay Kit, or CellTiter 96 AQueous Non-Radioactive Cell Proliferation Assay Kit (Promega, Madison, Wis.).

Another data set has as its system KOCL-48 cells. Kind of data set: MTS cell viability, KOCL-48. It counts as cell-based. The settings on record: 48 hrs, unit inferred. Here is the method:
as §1, §2, §3

Data set [1] has as its system MONOMAC-6, THP-1, KOCL-48 and KASUMI-1 cells. Kind of data set: MTS cell viability, four TET1-high AML cell lines together. It is filed as cell-based. Here is the method:
as §1, §2, §3

The test system of data set [2] is STAT3 and STAT5 phosphorylation. Kind of data set: Western blotting of STAT phosphorylation in MONOMAC-6 cells. It counts as cell-based. To be noted: 250 nM, 0 min to 24 hrs. An excerpt:
FIG. 10. […] Relative cell viabilities are shown. […] Levels of TET1 transcripts are shown. […] (e-h) MONOMAC-6, THP-1 and NB4 cells were transfected with control siRNA (siNC), siSTAT3, or siSTAT5. Expression levels of STAT5 (e), STAT3 (f), TET2 (g) and TET3 (h) were detected by qPCR 48 hrs post-transfection. (i) THP-1 cells were transfected with control siRNA (siNC), siTET1, siJAK1 or siSTAT5. Gene expression levels were detected by qPCR 48 hrs post-transfection. […] (j) ChIP-qPCR assay was carried out 48 hrs after drug treatment. Enrichment of TET1 or IgG at the JAK1 promoter region and other regions are shown. […] Protein levels were detected thereafter. […] Expression levels of TET1, HIF2 a, IL2RA and FRA2 (1) were detected through qPCR. The enrichment of STAT5 on the promoters of TET1 (Site 2; CpG), HIF2a, IL2RA and FRA2 (m) was determined through ChIP-qPCR assays. *, P<0.05; **, P<0.01, two-tailed t-test. Error bar indicates SD of triplicate experiments.
Cells were washed twice with ice-cold phosphate-buffered saline (PBS) and ruptured with RIPA buffer (Pierce, Rockford, Ill.) containing 5 mM EDTA, PMSF, cocktail inhibitor, and phosphatase inhibitor cocktail. Cell extracts were microcentrifuged for 20 min at 10,000 g and supernatants were collected. Cell lysates were resolved by SDS-PAGE and transferred onto PVDF membranes. […]

Data set [3] relates to TET1-high AML (including MONOMAC-6, THP-1, and KASUMI-1) cells. Kind of data set: MTS viability of AML cell lines versus JAK/STAT inhibitors. It counts as cell-based. To be noted: MTS 48 hrs; up to 500 nM. The procedure:
FIG. 4. […] (a) Structures of NSC-370284 and UC-514321. […] Cells were treated with drugs at indicated doses. Cell viability was detected by MTS 48 hrs post-treatment. Error bar indicates SD of triplicate experiments. […] Secondary BMT recipient mice were transplanted with primary leukemic BM cells with MLL-AF9 (f) or AML-ETO9a (g). […] Kaplan-Meier curves are shown. The P values were determined by log-rank test. […] Secondary BMT recipient mice were transplanted with primary leukemic BM cells with MLL-AF10 or FLT3-ITD/NPM1^mut. […] Kaplan-Meier curves are shown. The P values were determined by log-rank test. (j) Wright-Giemsa staining of mouse PB and BM, or H&E staining of mouse spleen and liver of MLL-AF9 AML secondary BMT recipients with or without drug treatment.
as §3

Another data set in a line: in vivo. The arrangement: species or system C57BL/6 mice. To be noted: C57BL/6, mouse. An excerpt:
FIG. 17. […] Error bar indicates SD of triplicate experiments.

Consider `COc1cc(C(c2cc3c(cc2O)OCO3)N2CCCC2)cc(OC)c1OC` (stereo not shown) [NSC-370284, 6-(1-Pyrrolidinyl(3,4,5-trimethoxyphenyl)methyl)-1,3-benzodioxol-5-ol], for which the half-inhibitory concentration (IC50) in the data set on THP-1 cells is 0.356 nM; with KOCL-48 cells, 38.2 nM; in data set [1] (average over the cell lines, unit inferred), 9.75 nM. The “inhibition of cell viability of all four TET1-high AML cell lines” value in data set [1] (0, 50, 200, 500 nM, MTS 48 hours, among top 20 candidates) was “most significant effects in inhibiting cell viability”. In addition, the “cell viability at low dose, short term” value in data set [1] (25 nM, 24 hours, MONOMAC-6, THP-1 and KOCL-48 cells) was “very minor decrease”. Further, in data set [2], the “levels of STAT3 and STAT5 phosphorylation” value is “no significant alterations”.

`CC(C)(C)c1cc(C(c2cc3c(cc2O)OCO3)N2CCOCC2)cc(C(C)(C)C)c1O` (stereo not shown) [UC-514321, 6-{[4-Hydroxy-3,5-bis(2-methyl-2-propanyl)phenyl](4-morpholinyl)methyl}-1,3-benzodioxol-5-ol]: the “effect in repressing viability of TET1-high AML cells compared with NSC-370284 and other JAK/STAT inhibitors” value in data set [3] is “enhanced effect”. Besides, the half-life in the data set “in vivo” is 11 h. Moreover, in “in vivo” (ip, 15 mg/kg), the total exposure AUC(0-inf) is 29400 ± 2750 ng·h/mL, the Clearance turned out to be 22.7 ± 1.3 mL/min/kg, the mean residence time (MRT) is 16.1 ± 1.79 h and the “Volume of Distribution” value was 21.66 ± 1.74 L/kg. The molecule also had a half-life in the data set “in vivo” (ip, 15 mg/kg) of 11 ± 2.51 h.
